Measured values taken from US8080529B2, “Macrolides with anti-inflammatory activity” (Glaxo Group Limited, priority 2005, dated 2011).
Read-outs that look alike come from different tables or passages of the source.

Assays:
IL-6 = assay: Inhibition of IL-6 production by stimulated human peripheral blood leukocytes in vitro; assay type: cell-based; conditions: Homo sapiens, Leukocyte, read-out: Percentage of inhibition of IL-6 production
In short: (§1)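 Sandwich ELISA of supernatant cytokines; % inhibition = (1 − sample/stimulated untreated control)×100. Dextran-isolated human PBL were pretreated 2 h with 10 or 50 μM compound, then challenged overnight with LPS (2 μg/mL), PMA (1 μg/mL) or zymosan (120 μg/mL).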

A549 = assay: Cytotoxicity assay (MTT), A549 cell line; assay type: cell-based; conditions: 24 h
In short: (§2)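 Viability was read as MTT-formazan absorbance at 490 nm after 0.5-2 h with reagent. This followed 24 h compound exposure (50 μM, 12.5 μM) at 37° C in RPM medium. Result expressed as OD490 treated over untreated cells ×100.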

IL-1α = assay: Inhibition of IL-1 production by stimulated human peripheral blood leukocytes in vitro; assay type: cell-based; conditions: Homo sapiens, Leukocyte, read-out: Percentage of inhibition of IL-1α production
Hep G2 = assay: Cytotoxicity assay (MTT), Hep G2 cell line; assay type: cell-based; conditions: 24 h
In short: as §2

IL-8 = assay: Inhibition of IL-8 production by stimulated human peripheral blood leukocytes in vitro; assay type: cell-based; conditions: Homo sapiens, Leukocyte, read-out: Percentage of inhibition of IL-8 production
In short: as §1

[1] = test system: human peripheral blood mononuclear cells (PBMC); assay: Effects on human T-cell proliferation in vitro (3H-thymidine incorporation); assay type: cell-based; conditions: Homo sapiens, PBMC, read-out: Percentage of inhibition of proliferation of stimulated PBMC
Protocol: The influence of the various test compounds at two different concentrations (50 μM and 10 μM) on cell proliferation of human peripheral blood mononuclear cells (PBMC) was assessed. […] The cells were pulsed with 1 μCi of ^3H-thymidine (Amersham, USA) per well during the last 18 h of the culture, and were harvested on the 96-well filter (Packard Bioscience, USA) using a multiple cell harvester (Packard, USA). The incorporation of ^3H-thymidine in activated cells were measured using TopCount NXT (Packard, USA). […] The positive control refers to LPS-, PMA- or zymosan-stimulated samples that were not treated with test compounds.

TNF-α [2] = assay: Inhibition of TNF-α production by stimulated human peripheral blood leukocytes in vitro; assay type: cell-based; conditions: Homo sapiens, Leukocyte, read-out: Percentage of inhibition of TNF-α production
In short: as §1

TNF-α [3] = assay: Lipopolysaccharide induced TNF-α production in Balb/cJ mice; assay type: in vivo; conditions: Mus musculus, ip, 1.5 h; 10 mg/kg intraperitoneally, 30 min before LPS; 90 min after LPS; read-out: % inhibition of TNF-α production (plasma)

| SMILES | inhibition at 10 µM (IL-6; LPS-stimulated PBL) [%] | inhibition at 10 µM (IL-6; PMA-stimulated PBL) [%] | inhibition at 10 µM (IL-6; zymosan-stimulated PBL) [%] | inhibition at 50 µM (IL-6; LPS-stimulated PBL) [%] | inhibition at 50 µM (IL-6; PMA-stimulated PBL) [%] | inhibition at 50 µM (IL-6; zymosan-stimulated PBL) [%] | Percentage of inhibition of cell growth (A549; 12.5 μM) [%] | Percentage of inhibition of cell growth (A549; 50 μM) [%] | inhibition at 10 µM (IL-1α; LPS-stimulated PBL) [%] | inhibition at 10 µM (IL-1α; PMA-stimulated PBL) [%] | inhibition at 10 µM (IL-1α; zymosan-stimulated PBL) [%] | inhibition at 50 µM (IL-1α; LPS-stimulated PBL) [%] | inhibition at 50 µM (IL-1α; PMA-stimulated PBL) [%] | inhibition at 50 µM (IL-1α; zymosan-stimulated PBL) [%] | Percentage of inhibition of cell growth (Hep G2; 12.5 μM) [%] | Percentage of inhibition of cell growth (Hep G2; 50 μM) [%] | inhibition at 10 µM (IL-8; LPS-stimulated PBL) [%] | inhibition at 10 µM (IL-8; PMA-stimulated PBL) [%] | inhibition at 10 µM (IL-8; zymosan-stimulated PBL) [%] | inhibition at 50 µM (IL-8; LPS-stimulated PBL) [%] | also measured |
| --- | --- | --- | --- | --- | --- | --- | --- | --- | --- | --- | --- | --- | --- | --- | --- | --- | --- | --- | --- | --- | --- |
| CC[C@H]1OC(=O)[C@H](C)[C@@H](O[C@H]2C[C@@](C)(OC)[C@@H](OC(=O)CCN(CC)CC)[C@H](C)O2)[C@H](C)[C@@H](O[C@@H]2O[C@H](C)C[C@H](N(C)C)[C@H]2O)[C@](C)(OC)C[C@@H](C)C(=O)[C@H](C)[C@H]2NC(=O)O[C@@]21C [Example 9, 11,12-Carbamate-11,12-dideoxy-4″-O-(3-diethylamino-propionyl)-6-O-methyl-erythromycin A] | 22 | 30 | 0 | 100 | 95 | 100 | 0 | 0 | 72 | 69 | 82 | 82 | 72 | 0 | 4 | 15 | 18 | 0 | 0 | 96 | inhibition at 50 µM (IL-8; PMA-stimulated PBL): 94%; inhibition at 50 µM (IL-8; zymosan-stimulated PBL): 91%; inhibition at 10 µM ([1]; PHA): 91%; inhibition at 50 µM ([1]; PHA): 100%; inhibition at 10 µM ([1]; PMA + iono.): 17%; inhibition at 50 µM ([1]; PMA + iono.): 100%; inhibition at 10 µM (TNF-α [2]; LPS-stimulated PBL): 73%; inhibition at 10 µM (TNF-α [2]; PMA-stimulated PBL): 93%; inhibition at 10 µM (TNF-α [2]; zymosan-stimulated PBL): 14%; inhibition at 50 µM (TNF-α [2]; LPS-stimulated PBL): 96%; inhibition at 50 µM (TNF-α [2]; PMA-stimulated PBL): 85%; inhibition at 50 µM (TNF-α [2]; zymosan-stimulated PBL): 72% |
| CC[C@H]1OC(=O)[C@H](C)[C@@H](O[C@H]2C[C@@](C)(OC)[C@@H](OC(=O)CCN(CC)CC)[C@H](C)O2)[C@H](C)[C@@H](O[C@@H]2O[C@H](C)C[C@H](NC)[C@H]2O)[C@](C)(OC)C[C@@H](C)C(=O)N[C@H](C)[C@@H](O)[C@]1(C)O [Example 54, 3′-N-Demethyl-4″-O-(3-diethylaminopropionyl)-6-O-methyl-9a-aza-9a-homoerythromycin A] | 0 | 0 | 9 | 58 | 71 | 87 | 0 | 0 | 60 | 62 | 56 | 69 | 97 | 98 | 1 | 2 | 0 | 0 | 0 | 82 | inhibition at 50 µM (IL-8; PMA-stimulated PBL): 40%; inhibition at 50 µM (IL-8; zymosan-stimulated PBL): 53%; inhibition in vivo at 10 mg/kg (TNF-α [3]): 58%; inhibition at 10 µM (TNF-α [2]; LPS-stimulated PBL): 3%; inhibition at 10 µM (TNF-α [2]; PMA-stimulated PBL): 25%; inhibition at 10 µM (TNF-α [2]; zymosan-stimulated PBL): 11%; inhibition at 50 µM (TNF-α [2]; LPS-stimulated PBL): 55%; inhibition at 50 µM (TNF-α [2]; PMA-stimulated PBL): 96%; inhibition at 50 µM (TNF-α [2]; zymosan-stimulated PBL): 92% |
